Earlier results in patent US20240034722A1, “PRETARGETING IMAGING AGENTS” (Eli Lilly and Company, priority 2020, published 2024).

Columns and labels:
ASO-TCO conjugate = conditions: rats given ASO-TCO intrathecally, tracer i.v. 24 and 168 hours later, static PET-CT 75-90 minutes after tracer; cited from earlier work
[1] = wild type mice, dynamic PET, by 10 min post-injection; cited from earlier work

O=C(Cc1ccc(-c2nncnn2)cc1)NCC[18F] [[^18F]537-Tz, 2-(4-(1,2,4,5-tetrazin-3-yl)phenyl)-N-(2-fluoroethyl)acetamide]
Radiotracer uptake in brain and spine relative to the control group (ASO-TCO conjugate): Higher radiotracer uptake | Brain uptake [1]: 1.7±0.9 % ID
